Assay results as given in BigSolDB 2.1.

Cc1ccccc1C(=O)O
Settings | solubility (mole fraction)
in DMAc, 307.65 K | 0.0781
in DMAc, 309.65 K | 0.0831
in DMAc, 311.25 K | 0.0866
in DMAc, 313.15 K | 0.0964
in DMAc, 314.35 K | 0.106
in DMAc, 317.65 K | 0.121
in DMAc, 320.25 K | 0.133
in DMAc, 321.85 K | 0.143
in DMAc, 325.25 K | 0.168
in DMAc, 327.55 K | 0.187
in DMAc, 330.25 K | 0.21
in DMAc, 332.65 K | 0.231
in DMAc, 334.35 K | 0.248
in DMAc, 336.15 K | 0.264
in DMAc, 337.35 K | 0.28
in DMAc, 338.95 K | 0.291
in DMAc, 340.35 K | 0.309
in DMAc, 341.15 K | 0.327
in DMAc, 342.05 K | 0.344
in DMAc, 343.15 K | 0.362
in DMAc, 344.35 K | 0.384
in DMF, 291.15 K | 0.329
in DMF, 295.85 K | 0.342
in DMF, 299.95 K | 0.357
in DMF, 303.75 K | 0.371
in DMF, 307.65 K | 0.39
in DMF, 311.55 K | 0.407
in DMF, 315.55 K | 0.423
in DMF, 319.45 K | 0.445
in DMF, 323.15 K | 0.461
in DMF, 327.25 K | 0.481
in DMF, 331.35 K | 0.498
in DMSO, 294.05 K | 0.497
in DMSO, 299.65 K | 0.514
in DMSO, 302.95 K | 0.523
in DMSO, 306.35 K | 0.534
in DMSO, 308.35 K | 0.537
in DMSO, 310.85 K | 0.542
in DMSO, 313.15 K | 0.548
in DMSO, 315.15 K | 0.557
in DMSO, 319.65 K | 0.57
in DMSO, 323.65 K | 0.581
in DMSO, 327.65 K | 0.591
in DMSO, 330.05 K | 0.6
in DMSO, 332.15 K | 0.608
in DMSO, 334.55 K | 0.617
in NMP, 288.95 K | 0.449
in NMP, 292.95 K | 0.455
in NMP, 296.95 K | 0.471
in NMP, 300.65 K | 0.49
in NMP, 304.65 K | 0.499
in NMP, 308.65 K | 0.51
in NMP, 312.65 K | 0.518
in NMP, 316.65 K | 0.531
in NMP, 321.35 K | 0.542
in NMP, 326.35 K | 0.559
in acetonitrile, 299.15 K | 0.314
in acetonitrile, 300.25 K | 0.316
in acetonitrile, 302.95 K | 0.323
in acetonitrile, 305.55 K | 0.329
in acetonitrile, 310.65 K | 0.34
in acetonitrile, 314.35 K | 0.346
in acetonitrile, 315.45 K | 0.35
in acetonitrile, 319.25 K | 0.36
in acetonitrile, 322.65 K | 0.369
in acetonitrile, 325.55 K | 0.378
in acetonitrile, 329.15 K | 0.386
in acetonitrile, 331.75 K | 0.393
in acetonitrile, 335.15 K | 0.401
in acetonitrile, 338.15 K | 0.409
in n-methylformamide, 294.95 K | 0.276
in n-methylformamide, 298.15 K | 0.286
in n-methylformamide, 303.65 K | 0.303
in n-methylformamide, 307.95 K | 0.32
in n-methylformamide, 312.95 K | 0.343
in n-methylformamide, 318.05 K | 0.365
in n-methylformamide, 322.35 K | 0.379
in n-methylformamide, 326.15 K | 0.392
in n-methylformamide, 330.15 K | 0.407
in n-methylformamide, 334.35 K | 0.434
in propionic acid, 296.35 K | 0.155
in propionic acid, 300.35 K | 0.179
in propionic acid, 303.65 K | 0.198
in propionic acid, 307.65 K | 0.212
in propionic acid, 311.25 K | 0.232
in propionic acid, 314.85 K | 0.253
in propionic acid, 318.35 K | 0.273
in propionic acid, 322.45 K | 0.301
in propionic acid, 326.05 K | 0.334
in propionic acid, 330.25 K | 0.363
in propionic acid, 334.15 K | 0.397

O=C(O)c1ccccc1C(=O)O
Settings | solubility (mole fraction)
in DMAc, 295.05 K | 0.163
in DMAc, 296.15 K | 0.168
in DMAc, 298.35 K | 0.18
in DMAc, 301.15 K | 0.193
in DMAc, 302.95 K | 0.201
in DMAc, 305.05 K | 0.211
in DMAc, 306.35 K | 0.22
in DMAc, 308.15 K | 0.229
in DMAc, 309.25 K | 0.238
in DMAc, 310.65 K | 0.249
in DMAc, 312.15 K | 0.258
in DMAc, 313.15 K | 0.268
in DMAc, 314.35 K | 0.276
in DMAc, 316.05 K | 0.286
in DMAc, 316.65 K | 0.295
in DMAc, 318.15 K | 0.305
in DMAc, 319.15 K | 0.314
in DMAc, 321.15 K | 0.323
in DMAc, 323.15 K | 0.334
in DMAc, 325.05 K | 0.343
in DMAc, 326.85 K | 0.353
in DMAc, 328.15 K | 0.362
in DMAc, 329.35 K | 0.373
in DMAc, 330.35 K | 0.381
in DMAc, 331.25 K | 0.389
in DMAc, 331.95 K | 0.396
in DMAc, 333.15 K | 0.405
in DMAc, 333.95 K | 0.415
in DMAc, 334.95 K | 0.427
in DMF, 304.15 K | 0.399
in DMF, 309.15 K | 0.42
in DMF, 311.05 K | 0.426
in DMF, 314.65 K | 0.435
in DMF, 316.75 K | 0.441
in DMF, 319.15 K | 0.446
in DMF, 323.35 K | 0.464
in DMF, 326.15 K | 0.476
in DMF, 328.65 K | 0.481
in DMF, 330.75 K | 0.491
in DMF, 332.45 K | 0.499
in DMF, 335.35 K | 0.509
in DMF, 338.25 K | 0.516
in DMF, 342.15 K | 0.528
in DMSO, 291.55 K | 0.333
in DMSO, 304.25 K | 0.344
in DMSO, 306.25 K | 0.348
in DMSO, 309.65 K | 0.352
in DMSO, 313.65 K | 0.354
in DMSO, 317.25 K | 0.357
in DMSO, 321.65 K | 0.362
in DMSO, 324.15 K | 0.364
in DMSO, 328.15 K | 0.368
in DMSO, 331.35 K | 0.37
in DMSO, 335.15 K | 0.373
in DMSO, 339.65 K | 0.378
in DMSO, 342.15 K | 0.38
in NMP, 293.55 K | 0.0649
in NMP, 298.35 K | 0.0801
in NMP, 303.25 K | 0.0925
in NMP, 305.15 K | 0.0988
in NMP, 307.95 K | 0.105
in NMP, 310.15 K | 0.116
in NMP, 314.05 K | 0.128
in NMP, 319.25 K | 0.147
in NMP, 321.65 K | 0.158
in NMP, 325.15 K | 0.173
in NMP, 327.25 K | 0.184
in NMP, 330.15 K | 0.202
in NMP, 333.25 K | 0.219
in acetonitrile, 296.95 K | 0.0247
in acetonitrile, 302.05 K | 0.0282
in acetonitrile, 308.25 K | 0.0323
in acetonitrile, 314.65 K | 0.0367
in acetonitrile, 318.35 K | 0.039
in acetonitrile, 321.15 K | 0.0402
in acetonitrile, 323.35 K | 0.0417
in acetonitrile, 325.15 K | 0.0429
in acetonitrile, 327.15 K | 0.0443
in acetonitrile, 329.15 K | 0.0457
in acetonitrile, 330.95 K | 0.048
in acetonitrile, 332.75 K | 0.0491
in acetonitrile, 334.35 K | 0.0504
in n-methylformamide, 294.35 K | 0.184
in n-methylformamide, 298.95 K | 0.19
in n-methylformamide, 303.35 K | 0.196
in n-methylformamide, 307.35 K | 0.201
in n-methylformamide, 311.15 K | 0.203
in n-methylformamide, 315.35 K | 0.207
in n-methylformamide, 318.95 K | 0.211
in n-methylformamide, 323.15 K | 0.216
in n-methylformamide, 327.95 K | 0.221
in n-methylformamide, 334.35 K | 0.229
in propionic acid, 298.75 K | 0.00308
in propionic acid, 306.65 K | 0.00404
in propionic acid, 312.15 K | 0.00478
in propionic acid, 316.15 K | 0.00524
in propionic acid, 320.65 K | 0.00579
in propionic acid, 323.65 K | 0.00642
in propionic acid, 327.75 K | 0.00704
in propionic acid, 331.35 K | 0.0079
in propionic acid, 335.15 K | 0.00876
in propionic acid, 338.75 K | 0.00983
